From patent publication US8592456B2 (4SC Discovery GmbH, priority 2011, dated 2013)
Read-outs that look alike come from different tables or passages of the source.

System: PBMC (T cell proliferation)
Assay: T cell proliferation assay, PHA-stimulated human PBMC (BrdU ELISA)
Format: cell-based
Method in brief: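 BrdU ELISA readout of proliferation at 48 hours. Cells: human PBMC from healthy donors in 10% dialyzed FCS/RPMI1640, 1×10^5 per well, activated by 2 μg/ml phytohaemagglutinin in the presence of compound.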

[1] = human PBMC, 2 μg/ml PHA, 48 hours, BrdU, read-out: D: IC50 (Tcell proliferation)
[2] = PHA-stimulated human PBMC, 48 hours, BrdU, column D, activity classes 1-4, read-out: IC50 (Tcell proliferation)

Compound	IC50 [1]	also measured
Nc1c(-c2c(F)cccc2Cl)noc1-c1cnn(-c2cccc(F)c2)c1C(F)(F)F [Example 117, 3-(2-chloro-6-fluorophenyl)-5-(1-(3-fluorophenyl)-5-(trifluoromethyl)-1H-pyrazol-4-yl)isoxazol-4-amine]	100 to 1000 nM	
COC(=O)c1c(-c2c(F)cccc2Cl)noc1-c1cnn(-c2cccc(C#N)c2)c1C(F)(F)F [Example 12, methyl 3-(2-chloro-6-fluorophenyl)-5-(1-(3-cyanophenyl)-5-(trifluoromethyl)-1H-pyrazol-4-yl)isoxazole-4-carboxylate]	10 to 100 nM	
NC(=S)c1c(-c2c(F)cccc2Cl)noc1-c1cnn(-c2ccccc2Cl)c1C(F)(F)F [Example B-101, 3-(2-chloro-6-fluorophenyl)-5-(1-(2-chlorophenyl)-5-(trifluoromethyl)-1H-pyrazol-4-yl)isoxazole-4-carbothioamide]	1000 to 10000 nM	
COC(=O)c1c(-c2c(F)cccc2Cl)noc1-c1cnn(-c2ccc(C(C)(C)C)cc2)c1C(F)(F)F [Example 81, methyl 5-(1-(4-tert-butylphenyl)-5-(trifluoromethyl)-1H-pyrazol-4-yl)-3-(2-chloro-6-fluorophenyl)isoxazole-4-carboxylate]	1000 to 10000 nM	
CC(C)OC(=O)c1c(-c2c(F)cccc2Cl)noc1-c1cnn(-c2cccc(Cl)c2)c1C(F)(F)F [Example B-31, isopropyl 3-(2-chloro-6-fluorophenyl)-5-(1-(3-chlorophenyl)-5-(trifluoromethyl)-1H-pyrazol-4-yl)isoxazole-4-carboxylate]	< 10 nM	
COC(=O)c1c(-c2c(Cl)cccc2Cl)noc1-c1cnn(-c2cccc(Cl)c2)c1C(F)(F)F [Example B-75, methyl 5-(1-(3-chlorophenyl)-5-(trifluoromethyl)-1H-pyrazol-4-yl)-3-(2,6-dichlorophenyl)isoxazole-4-carboxylate]	< 10 nM	
Fc1cccc(-n2ncc(-c3onc(-c4c(F)cccc4Cl)c3-c3nnco3)c2C(F)(F)F)c1 [Example I-7, 2-(3-(2-chloro-6-fluorophenyl)-5-(1-(3-fluorophenyl)-5-(trifluoromethyl)-1H-pyrazol-4-yl)isoxazol-4-yl)-1,3,4-oxadiazole]		IC50 [2]: 10 to 100 nM
NC(=O)c1c(-c2c(F)cccc2Cl)noc1-c1cnn(-c2cccc(Cl)c2)c1C(F)(F)F [Example 121, 3-(2-chloro-6-fluorophenyl)-5-(1-(3-chlorophenyl)-5-(trifluoromethyl)-1H-pyrazol-4-yl)isoxazole-4-carboxamide]	1000 to 10000 nM	
CCOC(=O)c1c(-c2ccncc2F)noc1-c1cnn(-c2cccc(Cl)c2)c1C(F)(F)F [Example B-4, ethyl 5-(1-(3-chlorophenyl)-5-(trifluoromethyl)-1H-pyrazol-4-yl)-3-(3-fluoropyridin-4-yl)isoxazole-4-carboxylate]	1000 to 10000 nM	
Fc1cc(F)cc(-n2ncc(-c3onc(-c4c(F)cccc4Cl)c3Br)c2C(F)(F)F)c1 [Example B-27, 4-bromo-3-(2-chloro-6-fluorophenyl)-5-(1-(3,5-difluorophenyl)-5-(trifluoromethyl)-1H-pyrazol-4-yl)isoxazole]	100 to 1000 nM	
Fc1ccccc1-n1ncc(-c2onc(-c3c(F)cccc3Cl)c2-c2cnco2)c1C(F)(F)F [IB-28, 3-(2-chloro-6-fluorophenyl)-5-(1-(2-fluorophenyl)-5-(trifluoromethyl)-1H-pyrazol-4-yl)-4-(oxazol-5-yl)isoxazole]		IC50 [2]: 100 to 1000 nM
CNC(=O)c1c(-c2c(F)cccc2Cl)noc1-c1cnn(-c2cccc(F)c2)c1C(F)(F)F [Example 62, 3-(2-chloro-6-fluorophenyl)-5-(1-(3-fluorophenyl)-5-(trifluoromethyl)-1H-pyrazol-4-yl)-N-methylisoxazole-4-carboxamide]	10 to 100 nM	
CCOC(=O)c1c(-c2onc(-c3c(F)cccc3Cl)c2C(=O)OC)cnn1-c1ccc(F)cc1F [Example 35, methyl 3-(2-chloro-6-fluorophenyl)-5-(1-(2,4-difluorophenyl)-5-(ethoxycarbonyl)-1H-pyrazol-4-yl)isoxazole-4-carboxylate]	100 to 1000 nM	
CCOC(=O)c1c(-c2c(F)cccc2Cl)noc1-c1cnn(CCOC)c1C(F)(F)F [Example B-2, ethyl 3-(2-chloro-6-fluorophenyl)-5-(1-(2-methoxyethyl)-5-(trifluoromethyl)-1H-pyrazol-4-yl)isoxazole-4-carboxylate]	1000 to 10000 nM	
Cc1nnc(-c2c(-c3c(F)cccc3Cl)noc2-c2cnn(-c3cccnc3)c2C(F)(F)F)o1 [IB-10, 2-(3-(2-chloro-6-fluorophenyl)-5-(1-(pyridin-3-yl)-5-(trifluoromethyl)-1H-pyrazol-4-yl)isoxazol-4-yl)-5-methyl-1,3,4-oxadiazole]		IC50 [2]: 100 to 1000 nM
COC(=O)c1c(-c2ccc(Cl)cc2Cl)noc1-c1cnn(-c2cccc(F)c2)c1C(F)(F)F [Example 111, methyl 3-(2,4-dichlorophenyl)-5-(1-(3-fluorophenyl)-5-(trifluoromethyl)-1H-pyrazol-4-y)isoxazole-4-carboxylate]	100 to 1000 nM	

Compound	IC50 [1]	also measured
CCOC(=O)c1c(-c2onc(-c3c(F)cccc3Cl)c2C(=O)OC)cnn1-c1ccc(Cl)cc1Cl [Example 6, methyl 3-(2-chloro-6-fluorophenyl)-5-(1-(2,4-dichlorophenyl)-5-(ethoxycarbonyl)-1H-pyrazol-4-yl)isoxazole-4-carboxylate]	1000 to 10000 nM	
CCOC(=O)c1c(-c2c(F)cccc2Cl)noc1-c1cnn(-c2ccccc2[N+](=O)[O-])c1C(F)(F)F [Example B-95, 3-(2-chloro-6-fluorophenyl)-5-(1-(2-nitrophenyl)-5-(trifluoromethyl)-1H-pyrazol-4-yl)isoxazole-4-carboxylate]	100 to 1000 nM	
CCOC(=O)c1c(-c2c(Cl)cncc2Cl)noc1-c1cnn(-c2cccc(Cl)c2)c1C(F)(F)F [Example B-7, ethyl 5-(1-(3-chlorophenyl)-5-(trifluoromethyl)-1H-pyrazol-4-yl)-3-(3,5-dichloropyridin-4-yl)isoxazole-4-carboxylate]	1000 to 10000 nM	
Cc1nnc(-c2c(-c3c(F)cccc3Cl)noc2-c2cnn(-c3ccccc3Cl)c2C(F)(F)F)o1 [IB-18, 2-(3-(2-chloro-6-fluorophenyl)-5-(1-(2-chlorophenyl)-5-(trifluoromethyl)-1H-pyrazol-4-yl)isoxazol-4-yl)-5-methyl-1,3,4-oxadiazole]		IC50 [2]: 1000 to 10000 nM
CC(C)OC(=O)c1c(-c2c(F)cccc2Cl)noc1-c1cnn(-c2ccccc2F)c1C(F)(F)F [Example 43, i-Propyl 3-(2-chloro-6-fluorophenyl)-5-[1-(2-fluorophenyl)-5-(trifluoromethyl)-1H-pyrazol-4-yl]isoxazole-4-carboxylate]	10 to 100 nM	
O=C(c1c(-c2c(F)cccc2Cl)noc1-c1cnn(-c2ccncc2)c1C(F)(F)F)N1CCCO1 [Example B-57, (3-(2-chloro-6-fluorophenyl)-5-(1-(pyridin-4-yl)-5-(trifluoromethyl)-1H-pyrazol-4-yl)isoxazol-4-yl)(isoxazolidin-2-yl)methanone]	1000 to 10000 nM	
CCOC(=O)c1c(-c2c(F)cccc2Cl)noc1-c1cnn(-c2cccnc2)c1C(F)(F)F [Example B-37, ethyl 3-(2-chloro-6-fluorophenyl)-5-(1-(pyridin-3-yl)-5-(trifluoromethyl)-1H-pyrazol-4-yl)-isoxazole-4-carboxylate]	< 10 nM	
CCOC(=O)c1c(-c2ccncc2F)noc1-c1cnn(-c2cccnc2)c1C(F)(F)F [Example B-17, ethyl 3-(3-fluoropyridin-4-yl)-5-(1-(pyridin-3-yl)-5-(trifluoromethyl)-1H-pyrazol-4-yl)isoxazole-4-carboxylate]	1000 to 10000 nM	
CCOC(=O)c1c(-c2onc(-c3c(F)cccc3Cl)c2C(=O)OC)cnn1-c1cccc(F)c1 [Example 8, methyl 3-(2-chloro-6-fluorophenyl)-5-(5-(ethoxycarbonyl)-1-(3-fluorophenyl)-1H-pyrazol-4-yl)isoxazole-4-carboxylate]	100 to 1000 nM	
Cc1nnc(-c2c(-c3c(F)cccc3Cl)noc2-c2cnn(-c3ccccn3)c2C(F)(F)F)o1 [IB-26, 2-(3-(2-chloro-6-fluorophenyl)-5-(1-(pyridin-2-yl)-5-(trifluoromethyl)-1H-pyrazol-4-yl)isoxazol-4-yl)-5-methyl-1,3,4-oxadiazole]		IC50 [2]: 100 to 1000 nM
COC(=O)c1c(-c2c(F)cccc2Cl)noc1-c1cnn(-c2ccc(S(C)(=O)=O)cc2)c1C(F)(F)F [Example 85, methyl 3-(2-chloro-6-fluorophenyl)-5-(1-(4-(methylsulfonyl)phenyl)-5-(trifluoromethyl)-1H-pyrazol-4-yl)isoxazole-4-carboxylate]	1000 to 10000 nM	
Cc1nnc(-c2c(-c3c(F)cccc3Cl)noc2-c2cnn(-c3cccnc3)c2C(F)(F)F)s1 [IB-21, 3-(2-chloro-6-fluorophenyl)-4-(5-methyl-1,3,4-thiadiazol-2-yl)-5-(1-(pyridin-3-yl)-5-(trifluoromethyl)-1H-pyrazol-4-yl)isoxazole]		IC50 [2]: 10 to 100 nM
COC(=O)c1c(-c2ccccc2)noc1-c1cnn(-c2ccc(OC(F)(F)F)cc2)c1C(F)(F)F [Example 74, methyl 3-phenyl-5-(1-(4-(trifluoromethoxy)phenyl)-5-(trifluoromethyl)-1H-pyrazol-4-yl)isoxazole-4-carboxylate]	1000 to 10000 nM	
Oc1csc(-c2c(-c3c(F)cccc3Cl)noc2-c2cnn(-c3cccc(F)c3)c2C(F)(F)F)n1 [Example I-9, 2-(3-(2-chloro-6-fluorophenyl)-5-(1-(3-fluorophenyl)-5-(trifluoromethyl)-1H-pyrazol-4-yl)isoxazol-4-yl)thiazol-4-ol]		IC50 (Homo sapiens, 48 h, read-out: IC50 (Tcell proliferation)): 100 to 1000 nM
CCOC(=O)c1c(-c2c(Cl)cncc2Cl)noc1-c1cnn(-c2ccncc2)c1C(F)(F)F [Example B-10, ethyl 3-(3,5-dichloropyridin-4-yl)-5-(1-(pyridin-4-yl)-5-(trifluoromethyl)-1H-pyrazol-4-yl)isoxazole-4-carboxylate]	100 to 1000 nM	
